Results as given in ChEMBL document CHEMBL5518183, “Broad-spectrum antiviral strategy: Host-targeting antivirals against emerging and re-emerging viruses” (Eur J Med Chem, 2024).
In brackets after ≈: the same amount, converted by molar mass.

How the values were obtained:
[1] = test system: Human immunodeficiency virus 1; assay: Antiviral activity against HIV-1 infected in human MT4 cells assessed as reduction in virus induced cytopathic effect incubated for 5 days by Cell Titer Glo luminescent assay; type: functional, organism-based; conditions: Human immunodeficiency virus 1, MT4, 120 h
SARS-CoV-2 [2] = assay: Antiviral activity against SARS-CoV-2 USA-WA1/2020 infected in human A549-ACE2 cells assessed as reduction in viral replication; type: functional, organism-based; conditions: Severe acute respiratory syndrome coronavirus 2, USA-WA1/2020, A549-ACE2
dengue virus type 2 = assay: Antiviral activity against DENV-2 infected in human Huh-7 cells at MOI of 0.05 assessed as log reduction of intracellular viral titre measured after 60 hrs post infection by RT-PCR analysis; type: functional, organism-based; conditions: Huh-7, 60 h
Caco-2 = assay: Cytotoxicity against human Caco-2 cells assessed as reduction in cell growth measured fpr 48 hrs by MTT assay; type: functional
SARS-CoV-2 [3] = assay: Antiviral activity against SARS-CoV-2 infected in African green monkey Vero E6 cells assessed as inhibition of viral replication; type: functional, organism-based; conditions: Severe acute respiratory syndrome coronavirus 2, Vero C1008
Enterovirus A71 = assay: Antiviral activity against human EV71 infected in HEK293 cells assessed as reduction in viral replication at MOI of 1 incubated for 48 hrs by luciferase assay; type: functional, organism-based; conditions: Enterovirus A, HEK293, 48 h
West Nile virus [4] = assay: Antiviral activity against West Nile virus infected in African green monkey Vero cells assessed as inhibition of virus induced cytopathic effect incubated for 48 hrs by MTS assay; type: functional, organism-based
MT4 = assay: Cytotoxicity against human MT4 cells assessed as reduction in cell viability incubated for 72 hrs by celltiter glo assay; type: functional
Hepatitis C virus [5] = assay: Antiviral activity against HCV infected in human Huh-7 cells assessed as reduction in viral infection; type: functional, organism-based, Hepacivirus hominis
Hepatitis B virus = assay: Antiviral activity against HBV genotype A infected in human HepG2 cells assessed as inhibition of viral replication; type: functional, organism-based
[6] = test system: Human immunodeficiency virus 1; assay: Antiviral activity against HIV1 infected in H9 cells assessed as reduction in viral replication; type: functional, organism-based; conditions: Human immunodeficiency virus 1, H9
H9 = assay: Antitumor activity against human H9 cells assessed as cell growth inhibition; type: functional, cell-based
[7] = test system: Human immunodeficiency virus 1; assay: Antiviral activity against HIV1 TC-1 infected in human PBMC assessed as inhibition of viral replication; type: functional, organism-based; conditions: Human immunodeficiency virus 1, TC-1, PBMC
Hepatitis C virus [8] = assay: Antiviral activity against HCV infected in human Huh-7 cells assessed as reduction in viral infection incubated for 72 hrs by qRT-PCR analysis; type: functional, organism-based, Hepacivirus hominis; conditions: Huh-7, 72 h
Dengue virus = assay: Antiviral activity against Dengue virus assessed as inhibition of viral replication; type: functional, organism-based
West Nile virus [9] = assay: Antiviral activity against West Nile virus infected in human A549 cells assessed as reduction in virus replication incubated for 72 hrs by MTS assay; type: functional, organism-based; conditions: A549, 72 h
[10] = test system: Respiratory syncytial virus; assay: Antiviral activity against RSV infected in human HepG2 cells assessed as inhibition of virus induced cytopathic effect measured for 60 mins by MTT assay; type: functional, organism-based; conditions: HepG2, 1 h
[11] = test system: Human immunodeficiency virus 1; assay: Antiviral activity against HIV-1 3B infected in human MT4 cells assessed as reduction in virus induced cytopathic effect incubated for 5 days by Cell Titer Glo luminescent assay; type: functional, organism-based; conditions: Human immunodeficiency virus 1, 3B, MT4, 120 h
Hepatitis C virus [12] = assay: Antiviral activity against Hepatitis C virus infected in Huh7.5 cells assessed as reduction in viral growth; type: functional, organism-based, Hepacivirus hominis
[13] = test system: Respiratory syncytial virus; assay: Antiviral activity against RSV A2 infected in human HepG2 cells assessed as inhibition of virus induced cytopathic effect measured after 72 hrs by MTT assay; type: functional, organism-based; conditions: HepG2, 72 h
[14] = Cytotoxicity against African green monkey Vero cells assessed as reduction in cell growth incubated for 72 hrs by MTT assay; type: toxicity, cell-based; conditions: chlorocebus sabaeus
Yellow fever virus = assay: Antiviral activity against Yellow fever virus African green monkey Vero cells assessed as reduction in cytopathic effect; type: functional
West Nile virus [15] = assay: Antiviral activity against West Nile virus infected in African green monkey Vero 76 cells assessed as reduction in cytopathic effect; type: functional
[16] = test system: Western equine encephalitis virus; assay: Antiviral activity against Western equine encephalomyelitis virus infected in African green monkey Vero cells assessed as reduction in cytopathic effect; type: functional
[17] = test system: Vesicular stomatitis virus; assay: Antiviral activity against Vesicular stomatitis virus infected in human A549 cells assessed as reduction in virus replication; type: functional

## Oc1ccccc1/C=N/Nc1nc(Nc2ccc(F)cc2)nc(Nc2ccc(F)cc2)n1
[1]
  EC50: 2 nM

## COc1ccc([C@H]2c3[nH]c4ccc(Cl)cc4c3CCN2C(=O)Oc2ccc(Cl)cc2)cc1 [EMVODODSTAT]
SARS-CoV-2 [2]
  EC50: 2 nM

## CN(/N=C/c1ccccc1C(=O)O)c1nc(-c2ccccc2Cl)cs1
Dengue virus type 2
  EC50: 17 nM

## Cc1c(-c2ccc(-c3ccccc3F)cc2)nc2ccc(F)cc2c1C(=O)O [BREQUINAR]
Caco-2
  CC50: 231000 nM
SARS-CoV-2 [3]
  EC50: 123 nM

## O=C(CCNC(=O)c1ccc(OC(F)(F)F)cc1)C[C@H]1CCCc2ccccc21
Enterovirus A71
  IC50: 66 nM

## Cc1oncc1C(=O)Nc1ccc(C(F)(F)F)cc1 [LEFLUNOMIDE]
West Nile virus [4]
  EC50: 35000 nM
MT4
  CC50: 178000 nM

## C/C=C/C[C@@H](C)[C@@H](O)[C@H]1C(=O)N[C@@H](CC)C(=O)N(C)C(C)C(=O)N(CC)[C@@H](CC(C)C)C(=O)N[C@@H](C(C)C)C(=O)N(C)[C@@H](CC(C)C)C(=O)N[C@@H](C)C(=O)N[C@H](C)C(=O)N(C)[C@@H](CC(C)C)C(=O)N(C)[C@@H](CC(C)C)C(=O)N(C)[C@@H](C(C)C)C(=O)N1C (stereo partly specified)
Hepatitis C virus [5]
  EC50: 0.27 µg/mL (≈ 0.219 µM)

## C/C=C/C[C@@H](C)[C@@H](O)[C@H]1C(=O)N[C@@H](CC)C(=O)N(C)CC(=O)N(C)[C@@H](CC(C)C)C(=O)N[C@@H](C(C)C)C(=O)N(C)[C@@H](CC(C)C)C(=O)N[C@@H](C)C(=O)N[C@H](C)C(=O)N(C)[C@@H](CC(C)C)C(=O)N(C)[C@@H](CC(C)C)C(=O)N(C)[C@@H](C(C)C)C(=O)N1C [CYCLOSPORINE]
Hepatitis B virus
  IC50: 5780 nM

## CCN(CC)S(=O)(=O)c1ccc(OC)c(NC(=O)Cc2ccccc2[N+](=O)[O-])c1
[6]
  EC50: 25000 nM
H9
  IC50: > 100000 nM

## CCCCc1cn(-c2ccc(NC(=O)Nc3ccccc3C)cc2)nn1
[7]
  EC50: 970 nM
Hepatitis C virus [8]
  EC50: 970 nM
Dengue virus
  EC50: 970 nM
West Nile virus [9]
  EC50: 970 nM

## COCCNC(=O)[C@@H]1C[C@@H](Sc2nc3ccccc3[nH]2)CN1Cc1ccc2c(c1)Cc1ccccc1-2
[10]
  EC50: 2 nM
[11]
  EC50: 2 nM
Hepatitis C virus [12]
  EC50: 2 nM
[13]
  EC50: 2 nM

## CC[C@@H]1NC(=O)[C@H]([C@@H]2O[C@@H](Sc3cccc(OCc4ccccc4)c3)C[C@H]2C)N(C)C(=O)[C@H](C(C)C)N(C)C(=O)[C@H](CC(C)C)N(C)C(=O)[C@H](CC(C)C)N(C)C(=O)[C@@H](C)NC(=O)[C@H](C)NC(=O)[C@H](CC(C)C)N(C)C(=O)[C@H](C(C)C)NC(=O)[C@H](CC(C)C)N(C)C(=O)CN(C)C1=O
Hepatitis B virus
  IC50: 110 nM

## COC(=O)c1c(-c2c(Cl)cccc2Cl)noc1-c1cnn(-c2cccc(Cl)c2)c1C(F)(F)F
[14]
  CC50 at 72 h: 5000 nM
Yellow fever virus
  EC90: 12.8 nM
West Nile virus [15]
  EC90: 0.31 nM
[16]
  EC90: 33.8 nM
[17]
  EC90: 38.7 nM
